Data from ChEMBL document CHEMBL1201862, “PubChem BioAssay data set” (2004).
The source made the active and inactive calls.

Columns and labels:
[1] = target: T1, Kappa-type opioid receptor (Homo sapiens, UniProt P41145); type: functional
[2] = target: T2, Delta-type opioid receptor (Homo sapiens, UniProt P41143); assay: HTS Image-Based Screen for Antagonists of the DOR Receptor. [Related pubchem assays (depositor defined):AID1777, AID1785, AID1786, AID2133]; type: functional
Mu-type opioid receptor [3] = target: T3, Mu-type opioid receptor (Homo sapiens, UniProt P35372); assay: HTS Image-Based Screen for Agonists of the MOR Receptor. [Related pubchem assays (depositor defined):AID1777, AID1785, AID1786, AID2133]; type: functional
Beta-galactosidase = Beta-galactosidase (Escherichia coli, UniProt Q8VNN2); type: functional
[4] = target: T2, Delta-type opioid receptor; assay: HTS Image-Based Screen for Agonists of the DOR Receptor. [Related pubchem assays (depositor defined):AID1777, AID1786, AID2133]; type: functional
[5] = target: T1, Kappa-type opioid receptor; type: functional; remark: listed apart in the source
[6] = target: T2, Delta-type opioid receptor; assay: SAR Analysis of Agonists of the DOR Receptor using an Image-Based Assay - Set 3. [Related pubchem assays (depositor defined):AID1777, AID1786]; type: functional
Mu-type opioid receptor [7] = target: T3, Mu-type opioid receptor; assay: SAR Analysis of Agonists of the MOR Receptor using an Image-Based Assay - Set 3. [Related pubchem assays (depositor defined):AID1777, AID1785, AID1786, AID1966, AID2133, AID2136, AID2284, AID2285, AID2352]; type: functional
[8] = target: T1, Kappa-type opioid receptor; assay: kappa opioid receptor activation by imaging – image-based, set 3, SAR follow-up (AID 488833); type: functional
[9] = target: T1, Kappa-type opioid receptor; assay: SAR analysis of small molecule agonists of the kappa opioid receptor via a luminescent beta-arrestin assay - Set 3. [Related pubchem assays (depositor defined):AID1777, AID1785, AID1786, AID1966, AID2133, AID2136, AID2284, AID2500]; type: functional
[10] = target: T4, Dual specificity protein phosphatase 3 (Homo sapiens, UniProt P51452); assay: VHR1 phosphatase inhibitors, biochemical (AID 1878)
Prothrombin = Prothrombin (Bos taurus, UniProt P00735); assay: thrombin protease inhibitors – biochemical, fluorescence polarization, uHTS hits, dose response (AID 602369); type: functional
[11] = target: 72 kDa type IV collagenase (Homo sapiens, UniProt P08253); assay: Dose Response validation of uHTS RPN11 inhibitor hits using a MMP-2 Fluorescence assay.; type: functional
[12] = target: T5, Dual specificity protein phosphatase 6 (Rattus norvegicus, UniProt Q64346); assay: inhibition of rat DUSP6 enzyme activity – biochemical, in vitro, primary screen (AID 425)
T5 sequence (Q64346 whole entry): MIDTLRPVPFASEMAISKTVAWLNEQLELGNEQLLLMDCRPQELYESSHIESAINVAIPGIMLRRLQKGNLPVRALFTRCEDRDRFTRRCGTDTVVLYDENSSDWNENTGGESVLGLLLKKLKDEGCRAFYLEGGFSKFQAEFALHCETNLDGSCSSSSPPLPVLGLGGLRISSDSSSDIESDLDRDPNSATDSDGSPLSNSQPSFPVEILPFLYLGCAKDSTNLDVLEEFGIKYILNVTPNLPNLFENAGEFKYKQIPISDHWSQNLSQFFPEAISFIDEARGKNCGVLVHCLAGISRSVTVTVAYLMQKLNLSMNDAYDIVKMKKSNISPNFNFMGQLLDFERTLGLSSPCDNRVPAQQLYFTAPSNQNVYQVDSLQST

SUMO-activating enzyme [13] = target: T6, SUMO-activating enzyme (Homo sapiens, UniProt Q9UBT2); assay: blockers of SAE1/SAE2–UBC9 SUMO transfer – biochemical, HTRF, uHTS, primary screen (AID 2006); type: protein-complex assay
[14] = target: 26S proteasome non-ATPase regulatory subunit 14 (Homo sapiens, UniProt O00487); assay: inhibition of proteasome subunit RPN11 – biochemical, fluorescence polarization, uHTS hits, confirmation (AID 602368); type: functional
SUMO-activating enzyme [15] = target: T6, SUMO-activating enzyme; assay: blockers of UBC9-mediated SUMO conjugation – biochemical, AlphaScreen, SUMOylation inhibitor project, confirmation (AID 2018); type: functional
[16] = target: T4, Dual specificity protein phosphatase 3; assay: VHR1 phosphatase inhibitors, primary screen, biochemical, absorbance, uHTS (AID 1654)
[17] = target: T7, Small ubiquitin-related modifier 1 (Homo sapiens, UniProt P63165); assay: SUMO1 protein-protein binding blockers, potency – biochemical, FRET, dose response (AID 624383); type: functional; conditions: read-out: IC50_Mean
[18] = target: T7, Small ubiquitin-related modifier 1; assay: SUMO1 protein interaction blockers, potency – biochemical, fluorescence polarization, uHTS hits, dose response (AID 624382); type: functional; conditions: read-out: IC50_Mean
[19] = Luminescence Cell-Based Dose Response HTS to Identify Activators of Luciferase Translation or Activity in H4 […] Cells. [Related pubchem assays: 1829 (Project Summary), 1814 (Primary HTS)]; type: functional
[20] = Luminescence Cell-Based Dose Confirmation HTS to Identify Activators of 5'UTR Stem-Loop Driven Alpha-Synuclein mRNA Translation in H4 Neuroglioblastoma Cells. [Related pubchem assays: 1829 (Project Summary), 1814 (Primary HTS)]; type: functional
[21] = target: T8, Tyrosine-protein phosphatase non-receptor type 22 (Homo sapiens, UniProt Q9Y2R2); type: functional
[22] = target: T8, Tyrosine-protein phosphatase non-receptor type 22; type: functional; remark: listed apart in the source
H4 = assay: Luminescence Cell-Based Dose Response HTS to Identify Activators of 5'UTR Stem-Loop Driven Prion Protein mRNA Translation in H4 Neuroglioblastoma Cells. [Related pubchem assays: 1829 (Project Summary), 1814 (Primary HTS)]; type: functional; conditions: Homo sapiens
[23] = target: T9, Tyrosine-protein phosphatase non-receptor type 7 (Homo sapiens, UniProt P35236); type: functional
T9 sequence (P35236 whole entry): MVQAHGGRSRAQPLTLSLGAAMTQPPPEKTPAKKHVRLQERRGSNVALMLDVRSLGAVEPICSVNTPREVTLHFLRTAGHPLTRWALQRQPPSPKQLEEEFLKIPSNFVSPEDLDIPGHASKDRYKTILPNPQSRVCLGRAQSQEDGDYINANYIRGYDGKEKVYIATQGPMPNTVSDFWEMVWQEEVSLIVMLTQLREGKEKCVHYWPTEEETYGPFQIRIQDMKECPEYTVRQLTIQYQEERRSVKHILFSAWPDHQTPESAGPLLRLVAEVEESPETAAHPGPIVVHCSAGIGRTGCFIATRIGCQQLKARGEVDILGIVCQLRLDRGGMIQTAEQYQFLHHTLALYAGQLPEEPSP

T1 sequence (P41145 whole entry): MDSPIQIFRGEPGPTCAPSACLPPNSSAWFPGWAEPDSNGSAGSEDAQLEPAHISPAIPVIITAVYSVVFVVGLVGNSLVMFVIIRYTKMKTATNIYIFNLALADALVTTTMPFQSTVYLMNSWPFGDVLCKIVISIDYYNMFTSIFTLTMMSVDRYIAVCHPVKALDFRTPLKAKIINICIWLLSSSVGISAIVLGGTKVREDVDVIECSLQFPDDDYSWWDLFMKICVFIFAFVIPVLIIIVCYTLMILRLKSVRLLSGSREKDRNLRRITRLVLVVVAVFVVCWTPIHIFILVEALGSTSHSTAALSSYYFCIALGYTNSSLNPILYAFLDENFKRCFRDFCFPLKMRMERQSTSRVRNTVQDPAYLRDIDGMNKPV
T2 sequence (P41143 whole entry): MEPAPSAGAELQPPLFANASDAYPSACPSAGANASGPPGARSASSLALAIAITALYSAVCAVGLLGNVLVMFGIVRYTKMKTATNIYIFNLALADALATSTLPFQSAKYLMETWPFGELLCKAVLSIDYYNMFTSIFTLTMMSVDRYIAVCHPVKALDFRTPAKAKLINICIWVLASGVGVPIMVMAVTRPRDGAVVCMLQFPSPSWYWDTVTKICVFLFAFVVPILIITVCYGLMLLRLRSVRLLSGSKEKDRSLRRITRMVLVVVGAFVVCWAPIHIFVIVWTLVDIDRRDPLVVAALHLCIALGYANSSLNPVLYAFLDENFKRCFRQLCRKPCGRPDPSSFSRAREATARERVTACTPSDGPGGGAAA
T4 sequence (P51452 whole entry): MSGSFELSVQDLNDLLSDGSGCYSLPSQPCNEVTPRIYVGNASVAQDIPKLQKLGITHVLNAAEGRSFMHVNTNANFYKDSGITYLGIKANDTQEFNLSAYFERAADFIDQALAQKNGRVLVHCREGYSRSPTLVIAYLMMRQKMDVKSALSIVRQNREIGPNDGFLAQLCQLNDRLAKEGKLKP
T6 sequence (Q9UBE0 whole entry): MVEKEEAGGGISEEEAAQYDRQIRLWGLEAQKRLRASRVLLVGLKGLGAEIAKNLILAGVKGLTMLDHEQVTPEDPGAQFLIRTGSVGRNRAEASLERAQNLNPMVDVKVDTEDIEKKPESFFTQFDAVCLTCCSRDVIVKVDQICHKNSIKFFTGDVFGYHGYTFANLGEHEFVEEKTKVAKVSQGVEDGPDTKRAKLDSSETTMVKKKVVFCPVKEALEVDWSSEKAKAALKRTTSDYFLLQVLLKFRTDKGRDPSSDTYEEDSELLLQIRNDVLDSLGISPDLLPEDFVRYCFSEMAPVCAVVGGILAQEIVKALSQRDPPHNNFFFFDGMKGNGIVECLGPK
T6 sequence (Q9UBT2 whole entry): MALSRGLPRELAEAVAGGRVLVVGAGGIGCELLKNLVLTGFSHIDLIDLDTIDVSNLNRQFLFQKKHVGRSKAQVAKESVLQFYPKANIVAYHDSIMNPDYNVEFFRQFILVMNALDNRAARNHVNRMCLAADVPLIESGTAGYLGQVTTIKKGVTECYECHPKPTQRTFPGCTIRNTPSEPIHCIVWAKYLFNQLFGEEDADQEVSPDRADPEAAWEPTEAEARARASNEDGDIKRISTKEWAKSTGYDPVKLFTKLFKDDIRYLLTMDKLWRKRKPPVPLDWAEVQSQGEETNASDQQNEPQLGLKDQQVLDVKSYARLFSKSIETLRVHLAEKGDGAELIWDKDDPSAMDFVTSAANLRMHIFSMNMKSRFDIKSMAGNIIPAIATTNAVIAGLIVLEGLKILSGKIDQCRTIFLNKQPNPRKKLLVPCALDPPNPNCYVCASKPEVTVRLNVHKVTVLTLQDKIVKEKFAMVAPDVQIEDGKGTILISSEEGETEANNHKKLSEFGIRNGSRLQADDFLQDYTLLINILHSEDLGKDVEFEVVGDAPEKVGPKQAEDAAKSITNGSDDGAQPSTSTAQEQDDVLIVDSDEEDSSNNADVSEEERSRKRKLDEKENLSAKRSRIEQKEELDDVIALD
T8 sequence (Q9Y2R2 whole entry): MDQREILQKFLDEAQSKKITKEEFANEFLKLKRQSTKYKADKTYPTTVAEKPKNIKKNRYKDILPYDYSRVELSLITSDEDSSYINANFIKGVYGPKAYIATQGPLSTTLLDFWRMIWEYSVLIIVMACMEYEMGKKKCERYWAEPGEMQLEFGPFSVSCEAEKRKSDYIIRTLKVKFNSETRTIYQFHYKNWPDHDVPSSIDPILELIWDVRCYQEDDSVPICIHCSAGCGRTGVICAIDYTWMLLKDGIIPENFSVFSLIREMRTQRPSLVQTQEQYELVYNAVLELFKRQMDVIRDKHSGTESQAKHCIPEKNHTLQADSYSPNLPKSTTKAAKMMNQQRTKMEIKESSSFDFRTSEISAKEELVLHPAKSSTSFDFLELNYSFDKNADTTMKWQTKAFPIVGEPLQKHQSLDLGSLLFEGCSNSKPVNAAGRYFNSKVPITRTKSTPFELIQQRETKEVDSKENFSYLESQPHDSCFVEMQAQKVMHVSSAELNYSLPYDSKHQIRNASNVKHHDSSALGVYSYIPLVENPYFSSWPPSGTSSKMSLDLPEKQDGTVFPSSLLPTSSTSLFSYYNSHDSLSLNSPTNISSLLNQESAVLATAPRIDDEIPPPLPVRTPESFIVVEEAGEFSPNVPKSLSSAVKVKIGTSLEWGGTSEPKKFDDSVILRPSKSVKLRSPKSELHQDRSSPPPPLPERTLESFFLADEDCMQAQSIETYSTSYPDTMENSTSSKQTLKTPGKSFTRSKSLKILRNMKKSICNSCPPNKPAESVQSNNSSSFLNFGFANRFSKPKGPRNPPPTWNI
T7 sequence (P63165 whole entry): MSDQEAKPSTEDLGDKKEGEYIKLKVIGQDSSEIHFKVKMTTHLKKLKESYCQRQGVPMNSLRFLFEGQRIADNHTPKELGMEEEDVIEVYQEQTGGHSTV
T3 sequence (P35372 whole entry): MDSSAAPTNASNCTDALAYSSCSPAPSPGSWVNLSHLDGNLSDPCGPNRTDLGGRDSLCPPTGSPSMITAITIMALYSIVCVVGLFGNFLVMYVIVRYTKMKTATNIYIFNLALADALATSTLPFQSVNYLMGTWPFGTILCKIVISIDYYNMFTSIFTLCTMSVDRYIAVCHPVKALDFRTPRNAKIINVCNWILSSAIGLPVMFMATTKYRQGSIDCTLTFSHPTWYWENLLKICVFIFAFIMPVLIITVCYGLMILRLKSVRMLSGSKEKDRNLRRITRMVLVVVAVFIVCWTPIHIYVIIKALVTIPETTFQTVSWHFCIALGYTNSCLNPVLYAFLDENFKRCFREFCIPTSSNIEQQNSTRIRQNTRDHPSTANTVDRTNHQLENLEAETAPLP
26S proteasome non-ATPase regulatory subunit 14, sequence (O00487 whole entry): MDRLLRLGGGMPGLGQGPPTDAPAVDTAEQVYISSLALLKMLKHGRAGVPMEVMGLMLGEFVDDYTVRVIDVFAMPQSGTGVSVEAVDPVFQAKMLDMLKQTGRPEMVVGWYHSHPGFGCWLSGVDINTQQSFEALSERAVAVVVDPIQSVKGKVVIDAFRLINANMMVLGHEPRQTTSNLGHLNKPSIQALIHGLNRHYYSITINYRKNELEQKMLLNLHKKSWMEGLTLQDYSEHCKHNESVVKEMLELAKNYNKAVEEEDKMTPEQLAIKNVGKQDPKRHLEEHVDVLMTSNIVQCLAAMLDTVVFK
Beta-galactosidase, sequence (Q8VNN2 whole entry): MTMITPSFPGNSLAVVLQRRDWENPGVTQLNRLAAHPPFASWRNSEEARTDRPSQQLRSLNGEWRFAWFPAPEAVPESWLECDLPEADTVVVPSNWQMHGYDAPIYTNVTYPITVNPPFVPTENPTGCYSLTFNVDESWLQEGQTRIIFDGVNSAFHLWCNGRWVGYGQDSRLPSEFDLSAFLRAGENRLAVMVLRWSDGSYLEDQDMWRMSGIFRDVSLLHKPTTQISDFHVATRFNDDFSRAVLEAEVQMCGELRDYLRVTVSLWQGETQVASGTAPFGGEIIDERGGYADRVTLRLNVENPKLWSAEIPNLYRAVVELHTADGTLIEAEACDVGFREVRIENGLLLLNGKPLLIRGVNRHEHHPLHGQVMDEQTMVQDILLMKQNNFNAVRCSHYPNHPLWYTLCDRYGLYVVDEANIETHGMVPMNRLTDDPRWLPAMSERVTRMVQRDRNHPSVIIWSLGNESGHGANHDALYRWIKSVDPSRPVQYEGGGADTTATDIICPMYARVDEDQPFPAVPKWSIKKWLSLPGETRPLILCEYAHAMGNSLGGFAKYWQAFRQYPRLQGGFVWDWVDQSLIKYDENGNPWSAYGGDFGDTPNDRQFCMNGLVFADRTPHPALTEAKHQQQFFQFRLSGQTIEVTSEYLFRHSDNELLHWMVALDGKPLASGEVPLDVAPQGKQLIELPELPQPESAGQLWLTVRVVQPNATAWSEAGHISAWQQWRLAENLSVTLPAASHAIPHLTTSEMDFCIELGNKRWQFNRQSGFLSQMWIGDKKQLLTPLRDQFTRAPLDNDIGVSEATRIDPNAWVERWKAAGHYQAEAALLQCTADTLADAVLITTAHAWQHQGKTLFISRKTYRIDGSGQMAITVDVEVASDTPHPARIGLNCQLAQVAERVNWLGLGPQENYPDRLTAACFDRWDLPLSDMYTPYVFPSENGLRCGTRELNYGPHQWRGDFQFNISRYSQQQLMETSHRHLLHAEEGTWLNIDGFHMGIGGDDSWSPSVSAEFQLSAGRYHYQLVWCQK

## Cc1nc(-c2ccccn2)[nH]c(=S)c1Cl
[1]
  IC50: > 32 µM
[2]
  IC50: > 32 µM (inactive)
Mu-type opioid receptor [3]
  EC50: > 32 µM (inactive)
Beta-galactosidase
  EC50: > 31.5 µM (inactive)
[4]
  EC50: > 32 µM (inactive)
[5]
  IC50: 20.3 µM (inactive)

## FC(F)(F)c1ccc(CSc2nnc(-c3ccccn3)n2Cc2cccs2)cc1
[6]
  EC50: > 32 µM (inactive)
Mu-type opioid receptor [7]
  EC50: > 32 µM (inactive)
[8]
  EC50: 0.621 µM (active)
[9]
  EC50: 1.23 µM (active)

## O=C(CSc1nnc(SCc2ccc(Cl)cc2)s1)N/N=C/c1c[nH]c2ccccc12
[10]
  IC50: 3.82 µM (active)
Prothrombin
  IC50: 82.5 µM (active)
[11]
  IC50: > 100 µM (inactive)
[12]
  IC50: 76.5 µM (active)
SUMO-activating enzyme [13]
  IC50: 48.3 µM (active)
[14]
  IC50: 9.99 µM (active)
SUMO-activating enzyme [15]
  IC50: 1.54 µM (active)
[16]
  IC50: 16.2 µM (active)
[17]
  IC50: 2.02 µM (active)
[18]
  IC50: > 66.6 µM (inactive)

## O=C1C2C(C(=O)N1/N=C/c1cccc([N+](=O)[O-])c1)C1C=CC2C12CC2 (stereo unspecified)
[19]
  EC50: 7.44 µM (active)
[20]
  EC50: 15.4 µM (active)
[21]
  IC50: > 79.4 µM (inactive)
[22]
  IC50: > 79.4 µM (inactive)
H4
  EC50: 87.7 µM (active)
[23]
  IC50: > 79.4 µM (inactive)
